{
  "source": "paper PMC6471062",
  "about": "“Suppression of the Ubiquitin Pathway by Small Molecule Binding to Ubiquitin Enhances Doxorubicin Sensitivity of the Cancer Cells” (Molecules, 2019)",
  "key": {"H1299 cells [1]": {"test_system": "H1299 cells", "assay": "Dox-induced K48- and K63-polyubiquitination in cells (immunofluorescence staining, Western blot)", "format": "cell-based", "conditions": "H1299, 5 or 10 μM CR 12 h pretreatment, then 5 μM Dox 12 h", "description": "Figure 6 CR inhibits Dox-induced ubiquitination in the cells. (a) Immunofluorescence staining of H1299 cells treated with or without 5 (+) and 10 (++) μM CR for 12 h followed by addition of Dox to a final concentration of 5 μM, with incubation for 12 h. The cells were subjected to immunofluorescence staining using the antibodies against K48 (αK48) and K63 polyubiquitins (αK63). (b) K48 or K63 polyubiquitin level in Figure 6a was quantified by fluorescence signal. At least seven random regions acquired in confocal images were sampled and normalized against DAPI intensity for quantification. (c) Immunoblots of samples in Figure 6a using the indicated antibodies. […] Statistical significance was calculated by the Student’s t-test (* p < 0.05, ** p < 0.01, *** p < 0.001).\nCells were seeded in the SPL 4 wells cell culture chamber slide 24 h before experiment. […] Subsequently, cells were incubated with primary antibody at 1/200 dilution in blocking buffer overnight and then washed with blocking buffer five times (5 min each) before incubation with fluorescence-conjugated secondary antibody at 1/200 dilution in blocking buffer for 1 h. […] Images acquired in confocal imaging were subjected to fluorescence intensity analysis using ImageJ [55]. Fluorescence signal representing a particular ubiquitin chain level was analyzed and normalized with the intensity of DAPI. […]"}, "HCT116 cells": {"test_system": "HCT116 cells", "assay": "Dox-induced cell death, colorimetric cell viability, HCT116", "format": "cell-based", "conditions": "10 µM CR or 5 µM NSC697923 12 h, then Dox 1.25–5.0 μM 12 h", "description": "Figure 7 CR enhances Dox sensitivity of cancer cells. (a,b) Enhancement of Dox-induced apoptosis of cancer cells by CR treatment. Dox–induced apoptosis of H1299 (a) and HCT116 (b) was quantified by colorimetric cell viability after treating 10 µM CR for 12 h followed by 12h treatment of Dox (0.0–5.0 µM). […] Caspase activity was quantified by luminogenic caspase activity assay. […] All error bars represent the standard deviation from at least four independent experiments. Statistical significance was calculated by the Student’s t-test (** p < 0.01, *** p < 0.001).\nCell viability assays were performed as described previously. For the caspase assays, the media were removed, and cells were lysed in 200 µL lysis buffer containing 50 µL Caspase Glo 3/7 solution and incubated for 15 min. Results were observed by measuring the luminescence signal using KOMM-Nr (Berthold Technologies, Bad Wildbad, Germany) and normalized with the total protein concentration measured by the Bradford assay. […]\nFigure S8. NSC697923 enhances Dox sensitivity of cancer cells. (a, b) Effect of NSC697923 to cancer cells’ viability in Dox treatment . Dox–induced cell death of H1299 ( a) and HCT116 ( b) was quantified by colorimetric cell viability assay after treating 5 µM NSC697923 for 12 h followed by 12h treatment of Dox (0.0 […]\nNSC697923. Caspase activity was quantified by luminogenic caspase activity assay. All error bars represent the standard deviation from at least 4 independent experiments. *, P<0.05; **, P<0.01; ***, P<0.001."}, "ubiquitin": {"target": "ubiquitin (Homo sapiens, UniProt P0CG47)", "assay": "Intrinsic fluorescence quenching assay of ubiquitin", "conditions": "50 µM ubiquitin, 0–500 µM compound, ex 274 nm / em 305 nm; read-out: Kd, dissociation constant upon binding to ubiquitin", "description": "Intrinsic fluorescence quenching assays were performed as described previously. Briefly, intrinsic fluorescence quenching of ubiquitin by indicated compounds was observed by measuring the excitation and emission wavelength at 274 nm and 305 nm respectively of the mixture of 50 µM purified ubiquitin and 0–500 µM compound. Data were fitted to nonlinear regression curves with the equation described previously. F = −∆ε·[PC] + Fo(3) b = (Po + Co + Kd)(4) c = Po·Co(5) [PC] = [b − (b^2 − 4·c)^1/2]/2(6) where Fo and F are the normalized fluorescence intensity of the mixture of ubiquitin without the compound and with different concentrations of the compound, respectively. ∆ε is a difference in the extinction coefficient of the compound between their free and complex forms. [PC] is the concentration of protein/compound complex. Po and Co are the added concentration of ubiquitin and the compound, respectively in each experiment. Kd is the dissociation constant."}, "H1299 cells [2]": {"test_system": "H1299 cells", "assay": "Total ubiquitination state of non-Dox-treated cells (immunoblot, immunofluorescence)", "format": "cell-based", "conditions": "H1299, 1.0 and 10 μM CR, 12 h", "description": "Cells were seeded in the SPL 4 wells cell culture chamber slide 24 h before experiment. Cells were treated with an indicated compound for an indicated time. The cells were fixed with 4% formaldehyde for 15 min followed by three times of PBS washing. Cells were permeabilized by incubation with PBS containing 0.5% Triton-X100 and 5% FBS for 30 min, and then blocked with blocking buffer (PBS, 5% FBS, 0.3% Triton X-100) for 1.5 h. Subsequently, cells were incubated with primary antibody at 1/200 dilution in blocking buffer overnight and then washed with blocking buffer five times (5 min each) before incubation with fluorescence-conjugated secondary antibody at 1/200 dilution in blocking buffer for 1 h. Cells were then washed with blocking buffer five times (5 min each) before incubation with DAPI for 10 min and three times washing with PBS. Slides were covered with the coverslip in the presence of mounting solution (cat # 475904, MOWIOL) and subjected to confocal imaging. Images acquired in confocal imaging were subjected to fluorescence intensity analysis using ImageJ [55]. Fluorescence signal representing a particular ubiquitin chain level was analyzed and normalized with the intensity of DAPI. Data were analyzed using GraphPad Prism version 6.0 for Windows with two tail t-test for statistical data analysis. page 6: Figure S6. Effect of CR on the ubiquitination state of none-treated cells. […]"}},
  "data": [
    {"smiles": "Nc1c(/N=N/c2ccc(-c3ccc(/N=N/c4cc(S(=O)(=O)O)c5ccccc5c4N)cc3)cc2)cc(S(=O)(=O)O)c2ccccc12", "note": "[CR, Congo red]", "values": [
      {"measurement": "Effect on Dox-triggered K48 and K63 ubiquitination", "setting": "H1299 cells [1]", "value": "suppressed Dox-triggered ubiquitination in both K48 and K63"},
      {"measurement": "Effect on Dox-induced cell death, HCT116", "setting": "HCT116 cells", "value": "significantly enhanced Dox-induced cell death"},
      {"measurement": "Kd", "setting": "ubiquitin", "value": "14.4 ± 1.27", "unit": "µM"},
      {"measurement": "Effect on total ubiquitination of normal (non-Dox-treated) cells", "setting": "H1299 cells [2]", "value": "slight accumulation of the polyubiquitin chains"}
    ]}
  ]
}
